# Results as given in patent US9617229B2, “Phenylmorpholines and analogues thereof” (Research Triangle Institute, priority 2010, dated 2017).
# Structures can show the parent of a compound that is named as a salt.
# Assays:
# Assay type in all cases: biochemical
# [1] = biological target: DAT (Rattus norvegicus, UniProt P23977); test: DA release assay (synaptosomes, [3H]MPP+); parameters: the supernatants were retained on ice (synaptosomal preparation); from tissue; host or cells: rat caudate synaptosomes
# Chain of DAT (P23977 whole entry): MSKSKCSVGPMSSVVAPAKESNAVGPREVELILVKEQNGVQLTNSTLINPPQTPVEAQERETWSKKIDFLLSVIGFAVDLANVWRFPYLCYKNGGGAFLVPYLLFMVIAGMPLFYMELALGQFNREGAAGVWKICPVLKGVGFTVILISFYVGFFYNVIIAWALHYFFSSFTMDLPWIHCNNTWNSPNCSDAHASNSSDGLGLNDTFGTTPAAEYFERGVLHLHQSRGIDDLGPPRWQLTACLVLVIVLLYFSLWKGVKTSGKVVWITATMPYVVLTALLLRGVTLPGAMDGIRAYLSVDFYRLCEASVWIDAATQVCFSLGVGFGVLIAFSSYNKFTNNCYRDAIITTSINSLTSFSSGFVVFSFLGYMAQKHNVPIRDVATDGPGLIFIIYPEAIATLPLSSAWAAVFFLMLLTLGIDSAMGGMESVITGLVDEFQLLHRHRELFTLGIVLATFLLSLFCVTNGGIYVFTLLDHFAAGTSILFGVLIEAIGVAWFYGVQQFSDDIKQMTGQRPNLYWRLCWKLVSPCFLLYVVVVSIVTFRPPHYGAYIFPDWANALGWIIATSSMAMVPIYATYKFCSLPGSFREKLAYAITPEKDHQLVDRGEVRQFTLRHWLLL
# Description: (§1) Rat caudate (for DA release) or whole brain minus cerebellum and caudate (for NE and 5-HT release), was homogenized in ice-cold 10% sucrose containing 1 μM reserpine. Nomifensine (100 nM) and GBR12935 (100 nM) were added to the sucrose solution for [^3H]5-HT release experiments to block any potential [^3H]5-HT reuptake into NE and DA nerve terminals. For the DA release assay, 100 nM desipramine and 100 nM citalopram were added to block [^3H]MPP^+ uptake into NE and 5-HT nerves. For the NE release assay, 50 nM GBR12935 and 100 nM citalopram were added to block [^3H]MPP^+ uptake into DA and 5-HT nerves. After 12 strokes with a Potter-Elvehjem homogenizer, homogenates were centrifuged at 1000×g for 10 min at 0-4° C. and the supernatants were retained on ice (synaptosomal preparation).
# (§2) After incubation to steady state, 850 μl of synaptosomes preloaded with [^3H]ligand were added to 12×75 mm polystyrene test tubes that contained 150 μl test drug in uptake buffer plus 1 mg/ml BSA. After 5 min (^3H]5-HT) or 30 min (NE and DA assays) the release reaction was terminated by dilution with 4 ml wash buffer (10 mM Tris-HCl pH 7.4 containing 0.9% NaCl at 25° C.) followed by rapid vacuum filtration over Whatman GF/B filters using a Brandel Harvester. The filters were rinsed twice with 4 ml wash buffer using the Brandel Harvester, and the retained tritium was counted by a Taurus liquid scintillation counter at 40% efficiency after an overnight extraction in 3 ml Cytoscint (ICN).
# (§3) In substrate reversal experiments, statistical significance was determined using the Student's t-test.
# [2] = biological target: T1, SERT (Rattus norvegicus, UniProt P31652); test: 5-HT release assay (synaptosomes, [3H]5-HT); parameters: the supernatants were retained on ice (synaptosomal preparation); from tissue; host or cells: rat whole brain minus cerebellum and caudate, synaptosomes; details: Table 4; % EC50 of release
# T1 sequence (P31652 whole entry): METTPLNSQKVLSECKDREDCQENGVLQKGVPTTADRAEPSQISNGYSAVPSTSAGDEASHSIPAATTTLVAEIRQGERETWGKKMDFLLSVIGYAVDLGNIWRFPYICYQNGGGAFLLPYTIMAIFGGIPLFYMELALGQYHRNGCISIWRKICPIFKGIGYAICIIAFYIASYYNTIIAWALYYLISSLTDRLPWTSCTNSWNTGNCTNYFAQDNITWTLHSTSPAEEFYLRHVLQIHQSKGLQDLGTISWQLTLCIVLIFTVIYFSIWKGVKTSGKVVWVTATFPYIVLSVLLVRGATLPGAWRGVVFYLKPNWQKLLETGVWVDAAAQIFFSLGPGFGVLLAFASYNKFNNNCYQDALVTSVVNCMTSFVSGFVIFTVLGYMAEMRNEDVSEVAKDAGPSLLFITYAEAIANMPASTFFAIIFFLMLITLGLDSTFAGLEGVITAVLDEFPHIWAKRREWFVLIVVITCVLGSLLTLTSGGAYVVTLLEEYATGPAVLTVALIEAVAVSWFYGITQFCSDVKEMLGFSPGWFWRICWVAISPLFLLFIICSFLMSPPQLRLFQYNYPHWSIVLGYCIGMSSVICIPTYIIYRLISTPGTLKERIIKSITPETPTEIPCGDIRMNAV
# Description: as §1, §2, §3
# [3] = biological target: T2, NET (Rattus norvegicus, UniProt Q63380); test: NE release assay (synaptosomes, [3H]MPP+); details: for NE Rel (%): Table 4, % EC50 of release
# T2 construct: the supernatants were retained on ice (synaptosomal preparation); from tissue; host or cells: rat whole brain minus cerebellum and caudate, synaptosomes
# T2 sequence (Q63380 1-617): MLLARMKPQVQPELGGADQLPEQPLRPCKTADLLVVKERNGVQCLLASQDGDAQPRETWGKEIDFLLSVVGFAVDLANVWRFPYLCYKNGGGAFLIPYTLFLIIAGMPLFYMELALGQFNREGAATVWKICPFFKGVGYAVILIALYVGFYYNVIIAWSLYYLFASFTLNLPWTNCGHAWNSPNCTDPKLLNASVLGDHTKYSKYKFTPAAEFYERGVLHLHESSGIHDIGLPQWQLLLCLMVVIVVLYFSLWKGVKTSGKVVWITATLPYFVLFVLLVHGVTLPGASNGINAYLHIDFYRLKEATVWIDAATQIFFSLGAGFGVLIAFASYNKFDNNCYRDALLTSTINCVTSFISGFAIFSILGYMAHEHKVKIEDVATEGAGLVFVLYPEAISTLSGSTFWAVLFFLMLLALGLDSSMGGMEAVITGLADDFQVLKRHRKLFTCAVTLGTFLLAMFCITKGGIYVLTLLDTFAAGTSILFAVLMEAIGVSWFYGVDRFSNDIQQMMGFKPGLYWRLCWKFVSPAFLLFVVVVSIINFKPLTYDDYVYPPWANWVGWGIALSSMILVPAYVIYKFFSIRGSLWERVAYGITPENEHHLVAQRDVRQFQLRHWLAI
# Description: as §1, §2, §3
# [4] = biological target: T1, SERT; test: 5HT uptake inhibition
SMILES,"DA Rel (%) ([1]; Table 4, % EC50 of release)",5HT Rel (%) [2],NE Rel (%) [3],DA Rel (%) ([1]; Table 5),also measured
"Cc1ccc(C2OCCNC2C)cc1 (stereo not shown) [PAL 747, 3-Methyl-2-(4′-Tolyl)morpholine fumarate]",91%,–,–,–,–
"CC1NCCOC1c1ccc(F)cc1.CC1NCCOC1c1ccc(F)cc1.O=C(O)/C=C/C(=O)O (stereo not shown) [PAL 748, 3-Methyl-[(4′-Fluoro)-2-Phenyl]morpholine (0.5 fumarate)]",98%,94%,93%,–,–
"CC1NCCOC1c1ccc(Cl)cc1.CC1NCCOC1c1ccc(Cl)cc1.O=C(O)/C=C/C(=O)O (stereo not shown) [PAL 749, 3-Methyl-[(4′-Chloro)-2-Phenyl]morpholine (0.5 fumarate)]",88%,76%,93%,–,–
"COc1ccc(C2OCCNC2C)cc1.Cl (stereo not shown) [PAL 751, 3-Methyl-[(4′-Methoxy)-2-Phenyl]morpholine hydrochloride]",50%,64%,84%,–,–
"CC1NCCOC1c1ccc(C#N)cc1.CC1NCCOC1c1ccc(C#N)cc1.O=C(O)/C=C/C(=O)O (stereo not shown) [PAL 772, 3-Methyl-[(4′-Cyano)-2-Phenyl]morpholine (0.5 fumarate)]",0%,53%,100%,–,–
"Cc1cccc(C2OCCNC2C)c1.Cc1cccc(C2OCCNC2C)c1.O=C(O)/C=C/C(=O)O (stereo not shown) [PAL 773, 3-Methyl-2-(3′-Tolyl)morpholine (0.5 fumarate)]",98%,82%,80%,–,–
"CC1NCCOC1c1cccc(O)c1.Cl (stereo not shown) [PAL 780, 3-Methyl-[(3′-Hydroxy)-2-Phenyl]morpholine hydrochloride]",97%,70%,100%,–,–
"CC1NCCOC1c1cccc(C#N)c1.Cl (stereo not shown) [PAL 786, 3-Methyl-[(3′-Cyano)-2-Phenyl]morpholine hydrochloride]",99%,99%,100%,–,–
"CC1NCCOC1c1ccc(Cl)c(Cl)c1.Cl (stereo not shown) [PAL 788, 3-Methyl-[(3′,4′-Dichloro)-2-Phenyl]morpholine hydrochloride]",60%,–,98%,–,5HT uptake inhibition (in words) [4]: 5HT uptake inhibitors; 5HT Up (%) ([4]; Table 4): 95%; NE releaser activity (in words) [3]: DA/NE releasers; DA releaser activity (in words) [1]: DA/NE releasers
"CC1NCCOC1c1ccc(F)c(Cl)c1.Cl (stereo not shown) [PAL 821, 3-Methyl-[(3′-Chloro-4′-Fluoro)-2-Phenyl]morpholine hydrochloride]",94%,71%,80%,–,–
"COc1cccc(C2OCCNC2C)c1.COc1cccc(C2OCCNC2C)c1.O=C(O)/C=C/C(=O)O (stereo not shown) [PAL 823, 3-Methyl-[(3′-Methoxy)-2-Phenyl]morpholine (0.5 fumarate)]",96%,78%,86%,–,–
"COc1cccc([C@H]2CN[C@@H](C)CO2)c1 [PAL 880, (2S,5S)-2-(3-Methoxy-phenyl)-5-methyl-morpholine]",–,–,–,56%,–
"Cc1cccc([C@H]2CN[C@@H](C)CO2)c1 [PAL 886, (2S,5S)-5-Methyl-2-m-tolyl-morpholine]",–,–,–,86%,–
"C[C@H]1CO[C@@H](c2cccc(F)c2)CN1 [PAL 890, (2S,5S)-2-(3-Fluoro-phenyl)-5-methyl-morpholine]",–,–,–,96%,–
"C[C@H]1CO[C@@H](c2cccc(C(F)(F)F)c2)CN1 [PAL 895, (2S,5S)-5-Methyl-2-(3-trifluoromethyl-phenyl)-morpholine]",–,–,–,45%,–
"C[C@H]1CO[C@@H](c2ccc(F)cc2)CN1 [PAL 903, (2S,5S)-2-(4-Fluoro-phenyl)-5-methyl-morpholine]",–,–,–,65%,–
"C[C@H]1CO[C@@H](c2ccc(C(F)(F)F)cc2)CN1 [PAL 910, (2S,5S)-5-Methyl-2-(4-trifluoromethyl-phenyl)-morpholine]",–,–,–,15%,–
